# Assays:
# Experiment in all cases: Competitive isoTOP-ABPP, cell lysates;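 for isoTOP-ABPP reactivity profile ratio, P68036 C86: Heavy/light ratio DMSO over fragment-treated so higher means more cysteine engagement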
# Assay type in all cases: binding
# [1] = target: T1, ADA C75 (P00813) (Homo sapiens, UniProt P00813); conditions: for isoTOP-ABPP reactivity ratio, P00813_C75 / isoTOP-ABPP reactivity profile ratio, P00813_C75: 500 μm, in-vitro_ramos; for isoTOP-ABPP ratio (reactivity profile), P00813_C75: 500 μm in-vitro ramos; for isoTOP-ABPP ratio, P00813_C75: 500 μM, invitro, ramos
# T1 sequence (P00813 1-363): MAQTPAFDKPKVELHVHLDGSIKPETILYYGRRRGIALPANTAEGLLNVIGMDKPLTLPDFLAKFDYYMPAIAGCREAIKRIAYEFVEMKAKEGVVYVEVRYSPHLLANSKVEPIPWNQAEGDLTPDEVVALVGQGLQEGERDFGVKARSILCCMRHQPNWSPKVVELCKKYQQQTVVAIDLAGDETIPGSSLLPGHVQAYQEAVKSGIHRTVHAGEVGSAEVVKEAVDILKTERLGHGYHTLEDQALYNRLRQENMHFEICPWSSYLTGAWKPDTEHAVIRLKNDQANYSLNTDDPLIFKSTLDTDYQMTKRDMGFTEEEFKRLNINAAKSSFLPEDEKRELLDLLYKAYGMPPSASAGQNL
# [2] = target: UBE2L3 C86 (P68036) (Homo sapiens, UniProt P68036); conditions: for isoTOP-ABPP reactivity profile ratio, P68036_C86 / isoTOP-ABPP reactivity ratio, P68036_C86: 500 μm; for isoTOP-ABPP ratio, P68036_C86: 500 μM, invitro;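 for isoTOP-ABPP reactivity profile ratio, P68036 C86: Heavy/light ratio DMSO over fragment-treated so higher means more cysteine engagement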
# [3] = target: T2, USP22 C171 (Q9UPT9) (Homo sapiens, UniProt Q9UPT9); conditions: for isoTOP-ABPP reactivity profile ratio, Q9UPT9_C171 / isoTOP-ABPP reactivity ratio, Q9UPT9_C171: 500 μm; for isoTOP-ABPP ratio (reactivity profile), Q9UPT9_C171: 500 μm in-vitro ramos; for isoTOP-ABPP ratio, Q9UPT9_C171: 500 μM, invitro, ramos
# T2 sequence (Q9UPT9 1-525): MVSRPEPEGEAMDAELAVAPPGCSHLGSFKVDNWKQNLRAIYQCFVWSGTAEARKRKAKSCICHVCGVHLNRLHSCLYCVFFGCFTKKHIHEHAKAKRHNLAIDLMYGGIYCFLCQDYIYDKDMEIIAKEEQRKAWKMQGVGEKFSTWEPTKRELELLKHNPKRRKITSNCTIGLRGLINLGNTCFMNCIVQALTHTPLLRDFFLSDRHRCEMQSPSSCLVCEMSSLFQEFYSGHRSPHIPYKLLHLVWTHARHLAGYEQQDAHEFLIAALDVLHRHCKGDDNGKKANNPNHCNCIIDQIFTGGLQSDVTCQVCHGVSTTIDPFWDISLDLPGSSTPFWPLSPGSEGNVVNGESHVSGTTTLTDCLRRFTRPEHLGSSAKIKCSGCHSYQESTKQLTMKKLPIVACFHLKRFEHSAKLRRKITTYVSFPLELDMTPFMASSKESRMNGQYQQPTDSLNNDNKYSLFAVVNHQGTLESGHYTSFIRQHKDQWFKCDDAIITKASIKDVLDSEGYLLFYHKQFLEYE
# [4] = target: T3, IRF4 C194 (Q15306) (Homo sapiens, UniProt Q15306); conditions: for isoTOP-ABPP reactivity profile ratio, Q15306_C194 / isoTOP-ABPP reactivity ratio, Q15306_C194: 500 μm, in-vitro_ramos; for isoTOP-ABPP ratio (reactivity profile), Q15306_C194: 500 μm in-vitro ramos; for isoTOP-ABPP ratio, Q15306_C194: 500 μM, invitro, ramos
# T3 sequence (Q15306 1-451): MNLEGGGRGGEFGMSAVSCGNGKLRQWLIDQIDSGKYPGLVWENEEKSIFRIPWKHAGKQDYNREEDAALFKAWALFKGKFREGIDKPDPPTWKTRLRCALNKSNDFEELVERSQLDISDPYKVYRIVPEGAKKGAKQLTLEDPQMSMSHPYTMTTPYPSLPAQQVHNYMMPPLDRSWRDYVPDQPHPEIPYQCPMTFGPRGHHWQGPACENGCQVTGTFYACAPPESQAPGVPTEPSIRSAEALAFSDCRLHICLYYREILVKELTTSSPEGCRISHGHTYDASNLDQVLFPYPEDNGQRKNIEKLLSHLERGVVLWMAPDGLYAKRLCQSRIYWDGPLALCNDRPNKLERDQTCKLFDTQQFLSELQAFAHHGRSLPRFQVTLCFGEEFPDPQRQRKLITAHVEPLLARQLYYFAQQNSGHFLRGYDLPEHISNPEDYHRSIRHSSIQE
# [5] = target: SAMHD1 C522 (Q9Y3Z3) (Homo sapiens, UniProt Q9Y3Z3); conditions: for isoTOP-ABPP reactivity ratio, Q9Y3Z3_C522 / isoTOP-ABPP reactivity profile ratio, Q9Y3Z3_C522: 500 μm
structure (smiles),measurement,setting,value
O=C(CCl)N(Cc1ccc(F)cc1)C12CC3CC(CC(C3)C1)C2 [compound 34],"isoTOP-ABPP reactivity ratio, P00813_C75",[1],1.1
N#CC(=Cc1ccc(-c2ccccc2Cl)o1)C(N)=O [compound 42],"isoTOP-ABPP reactivity profile ratio, P68036_C86",[2]; in-vitro_ramos,0.8
same,"isoTOP-ABPP reactivity profile ratio, Q9UPT9_C171",[3]; in-vitro_ramos,1.0
same,"isoTOP-ABPP reactivity profile ratio, Q15306_C194",[4],1.2
same,"isoTOP-ABPP reactivity profile ratio, P00813_C75",[1],0.8
COc1ccccc1OCCNC(=O)CCl [compound 28],"isoTOP-ABPP ratio (reactivity profile), P68036_C86",[2]; 500 μm in-vitro ramos_231,1.4
same,"isoTOP-ABPP ratio (reactivity profile), Q9UPT9_C171",[3],1.3
same,"isoTOP-ABPP ratio (reactivity profile), Q9Y3Z3_C522",[5]; 500 μm in-vitro ramos_231,1.0
same,"isoTOP-ABPP ratio (reactivity profile), Q15306_C194",[4],1.1
same,"isoTOP-ABPP ratio (reactivity profile), P00813_C75",[1],0.9
O=C(CCl)N1CCC(C(O)(c2ccccc2)c2ccccc2)CC1 [compound 20],"isoTOP-ABPP ratio (reactivity profile), P68036_C86",[2]; 500 μm in-vitro ramos,1.2
same,"isoTOP-ABPP ratio (reactivity profile), P68036_C86",[2]; 500 μm in-vitro ramos_231,1.1
same,"isoTOP-ABPP ratio (reactivity profile), Q9UPT9_C171",[3],20.0
same,"isoTOP-ABPP ratio (reactivity profile), Q9Y3Z3_C522",[5]; 500 μm in-vitro ramos,1.3
same,"isoTOP-ABPP ratio (reactivity profile), Q9Y3Z3_C522",[5]; 500 μm in-vitro ramos_231,2.1
same,"isoTOP-ABPP ratio (reactivity profile), Q15306_C194",[4],3.0
same,"isoTOP-ABPP ratio (reactivity profile), P00813_C75",[1],1.5
CC(Br)C(=O)Nc1cc(C(F)(F)F)cc(C(F)(F)F)c1 (stereo not drawn) [compound 24],"isoTOP-ABPP ratio (reactivity profile), Q9UPT9_C171",[3],3.1
same,"isoTOP-ABPP ratio (reactivity profile), Q9Y3Z3_C522",[5]; 500 μm in-vitro ramos,1.1
same,"isoTOP-ABPP ratio (reactivity profile), Q15306_C194",[4],1.9
same,"isoTOP-ABPP ratio (reactivity profile), P00813_C75",[1],1.2
Cc1ccc(C=C(C#N)C(=O)NCCN2CCOCC2)cc1 [compound 41],"isoTOP-ABPP reactivity ratio, P68036_C86",[2]; in-vitro_ramos,7.9
same,"isoTOP-ABPP reactivity ratio, P68036_C86",[2]; in-vitro_ramos_231,9.8
same,"isoTOP-ABPP reactivity ratio, Q9UPT9_C171",[3]; in-vitro_ramos,1.4
same,"isoTOP-ABPP reactivity ratio, Q9UPT9_C171",[3]; in-vitro_ramos_231,3.0
same,"isoTOP-ABPP reactivity ratio, Q9Y3Z3_C522",[5]; in-vitro_ramos_231,0.9
same,"isoTOP-ABPP reactivity ratio, Q15306_C194",[4],1.2
same,"isoTOP-ABPP reactivity ratio, P00813_C75",[1],1.1
O=C(CCl)NC(=O)NC12CC3CC(CC(C3)C1)C2 [compound 12],"isoTOP-ABPP ratio, Q9UPT9_C171",[3],4.1
same,"isoTOP-ABPP ratio, Q15306_C194",[4],3.7
same,"isoTOP-ABPP ratio, P00813_C75",[1],0.7
COc1cc(NC(=O)CCl)cc(OC)c1 [compound 43],"isoTOP-ABPP reactivity profile ratio, P68036_C86",[2]; in-vitro_ramos,1.7
same,"isoTOP-ABPP reactivity profile ratio, P68036_C86",[2]; in-vitro_ramos_231,1.1
same,"isoTOP-ABPP reactivity profile ratio, Q9UPT9_C171",[3]; in-vitro_ramos,4.5
same,"isoTOP-ABPP reactivity profile ratio, Q9Y3Z3_C522",[5]; in-vitro_ramos_231,2.2
same,"isoTOP-ABPP reactivity profile ratio, Q15306_C194",[4],3.0
same,"isoTOP-ABPP reactivity profile ratio, P00813_C75",[1],1.2
O=C(CCl)NCCc1c[nH]c2ccccc12 [compound 13],"isoTOP-ABPP ratio, P68036_C86",[2]; 231,1.1
same,"isoTOP-ABPP ratio, P68036_C86",[2]; ramos,0.8
same,"isoTOP-ABPP ratio, Q9UPT9_C171",[3],0.8
same,"isoTOP-ABPP ratio, Q9Y3Z3_C522","[5]; 500 μM, invitro, 231",0.8
same,"isoTOP-ABPP ratio, Q15306_C194",[4],1.1
same,"isoTOP-ABPP ratio, P00813_C75",[1],0.9
O=C(CCl)N1CCOCC1 [compound 22],"isoTOP-ABPP ratio (reactivity profile), P68036_C86",[2]; 500 μm in-vitro ramos,0.8
same,"isoTOP-ABPP ratio (reactivity profile), Q9UPT9_C171",[3],1.1
same,"isoTOP-ABPP ratio (reactivity profile), Q9Y3Z3_C522",[5]; 500 μm in-vitro ramos,0.8
same,"isoTOP-ABPP ratio (reactivity profile), Q15306_C194",[4],1.1
same,"isoTOP-ABPP ratio (reactivity profile), P00813_C75",[1],1.3
COc1ccc(C2CC(c3cccs3)=NN2C(=O)CCl)cc1 (stereo not drawn) [compound 4],R value (DMSO/fragment),"[2]; 250 μM, in vitro, MDA-MB-231",1.2
same,R value (DMSO/fragment),"[3]; 250 μM, in vitro, Ramos",4.0
same,R value (DMSO/fragment),"[5]; 250 μM, in vitro, MDA-MB-231",1.5
same,R value (DMSO/fragment),"[1]; 250 μM, in vitro, Ramos",0.1
CC(C)(C)c1cc(NC(=O)CCl)on1 [compound 32],"isoTOP-ABPP reactivity ratio, P68036_C86",[2]; in-vitro_ramos,0.9
same,"isoTOP-ABPP reactivity ratio, P68036_C86",[2]; in-vitro_ramos_231,1.1
same,"isoTOP-ABPP reactivity ratio, Q9UPT9_C171",[3]; in-vitro_ramos,9.3
same,"isoTOP-ABPP reactivity ratio, Q9Y3Z3_C522",[5]; in-vitro_ramos,1.8
same,"isoTOP-ABPP reactivity ratio, Q15306_C194",[4],3.7
same,"isoTOP-ABPP reactivity ratio, P00813_C75",[1],1.7
O=C(CCl)Nc1ccc(-c2ccccc2)cc1 [compound 52],"isoTOP-ABPP reactivity profile ratio, P68036_C86",[2]; in-vitro_ramos,1.3
same,"isoTOP-ABPP reactivity profile ratio, P68036_C86",[2]; in-vitro_ramos_231,0.8
same,"isoTOP-ABPP reactivity profile ratio, Q9Y3Z3_C522",[5]; in-vitro_ramos_231,1.2
same,"isoTOP-ABPP reactivity profile ratio, Q15306_C194",[4],1.4
same,"isoTOP-ABPP reactivity profile ratio, P00813_C75",[1],1.2
O=C(CCl)NC12CC3CC(CC(C3)C1)C2 [compound 21],"isoTOP-ABPP ratio (reactivity profile), P68036_C86",[2]; 500 μm in-vitro ramos,2.0
same,"isoTOP-ABPP ratio (reactivity profile), P68036_C86",[2]; 500 μm in-vitro ramos_231,1.2
same,"isoTOP-ABPP ratio (reactivity profile), Q9Y3Z3_C522",[5]; 500 μm in-vitro ramos,1.4
same,"isoTOP-ABPP ratio (reactivity profile), Q15306_C194",[4],1.7
same,"isoTOP-ABPP ratio (reactivity profile), P00813_C75",[1],1.3
C=CC(=O)N1CCC(Cc2ccccc2)CC1 [compound 53],"isoTOP-ABPP reactivity profile ratio, P68036_C86",[2]; in-vitro_ramos,1.0
same,"isoTOP-ABPP reactivity profile ratio, P68036_C86",[2]; in-vitro_ramos_231,1.0
same,"isoTOP-ABPP reactivity profile ratio, Q9Y3Z3_C522",[5]; in-vitro_ramos,0.7
same,"isoTOP-ABPP reactivity profile ratio, Q15306_C194",[4],1.0

# From patent publication US10670605B2, “Cysteine reactive probes and uses thereof” (The Scripps Research Institute, priority 2015, dated 2020)
